Assays:
in vitro [1] = details: human; for recovery at 120 min: pH 7.4; for Papp at 120 min: apical dosing
Experimental: (§1) EpiAirway tissues, plated in 24-well plates, and accompanying culture medium and assay buffer solutions, were purchased from MatTek Corporation (Ashland, Mass.). According to the EpiAirway AIR-100 Use Protocol provided by MatTek, the tissues were returned to culture immediately upon receipt. In a tissue culture hood, using sterile technique, 1.0 mL of cold medium (AIR-100-ASY) was dispensed into each well of the 6-well plate (n=3) and one tissue insert was transferred to each of the wells. The apical surface of the tissue was exposed to the air (no medium was added to the insert). The tissues were equilibrated overnight at 37° C. in a 5% CO2 incubator. The culture medium was then replaced with fresh, pre-warmed medium until use.
(§2) The unidirectional permeation experiment was conducted according to protocol 18APCIP2 and relevant SOPs of Absorption Systems. Prior to the permeability assay, the culture medium in the plate was aspirated; and ˜1 mL of Dulbecco's phosphate-buffered saline (DPBS) was added to the well to remove any remaining residue of culture medium from the underside of the insert. The tissues were transferred to a 24-well plate with DPBS (750 μL) in each well as receiver, and dosing solution (400 μL) was added to each insert. A 100 μL aliquot was immediately removed as the 0-minute donor sample. Receiver samples (200 μL) were collected at 30, 60, and 120 minutes, replaced with an equal volume of fresh pre-warmed blank buffer at 30 and 60 minutes. The donor side was sampled (100 μL) at 0 and 120 minutes. The assay plate was placed in a humidified CO2 incubator at 37° C. during the assay period.
(§3) After 120 minutes, the tissues were rinsed with DPBS and gently dried with tissue wipes after aspiration of the assay buffer. The insert membranes with tissues attached were carefully removed from the insert apparatus, placed in a tared centrifuge tube, and weighed.
(§4) The apparent permeability coefficient (Papp) and recovery were calculated as follows:
Papp=(dCr/dt)×Vr/(A×Cini) (1)
(§5) Recovery (%)=[((Cr,final×Vr)+(Cd,final×Vd))/(Cini×Vd)]×100 (2)
(§6) Recovery (%)=[((Cr,final×Vr)+(Cd,final×Vd)+(Tissue Accumulation))/(Cini×Vd)]×100 (3)
(§7) where, • dCr/dt is the slope of cumulative receiver concentration vs. time in μM s^−1; • Vr is the volume of the receiver compartment; • Vd is the volume of the donor compartment; • A is the diffusional area of the membrane; • Cini is the donor concentration at 0 minutes in μM; • CD,final is the donor concentration at 120 minutes in μM; • Cr,final is the receiver concentration at 120 minutes in μM.
(§8) With DPBS, pH 7.4 used on both the donor and receiver sides, permeability was initiated with addition of 0.4 mL of dosing solution into the inserts and of 0.75 mL of blank buffer into the wells of the assay plate. The assay was performed for 120 minutes in a humidified incubator at 37° C.

in vitro [2] = details: pH 7.4
rhinovirus colds = details: intranasal administration in a phosphate buffer vehicle, patients; cited from earlier work
EpiAirway tissues = EpiAirway tissues after 120 minutes
Experimental: as §1, §2, §3, §4
Papp=(dCr/dt)×Vr/(A×Cini) (1)
as §5, §6, §7, §8

| SMILES | recovery at 120 min (in vitro [1]) [%] | recovery at 120 min, 100 μM (in vitro [2]) [%] | therapeutic effect in reducing signs and symptoms of rhinovirus colds (rhinovirus colds) | Tissue Accumulation Average ± SD (EpiAirway tissues) [nmol/mg] | Tissue Accumulation R1 (EpiAirway tissues; replicate R1) [nmol/mg] | Tissue Accumulation R3 (EpiAirway tissues; replicate R3) [nmol/mg] | Papp at 120 min (in vitro [1]; pH 7.4, Papp Average ± SD, EpiAirway tissues, DPBS pH 7.4, diphenhydramine 100 μM, atenolol 100 μM, caffeine 50 μM co-dosed) [×10⁻⁶ cm/s] | Papp at 120 min (in vitro [1]; pH 7.4, Papp R1, EpiAirway tissues, DPBS pH 7.4, 120 minutes, 37° C., replicate R1) [×10⁻⁶ cm/s] | Papp at 120 min (in vitro [1]; pH 7.4, Papp R2, EpiAirway tissues, DPBS pH 7.4, replicate R2) [×10⁻⁶ cm/s] | Papp at 120 min (in vitro [1]; pH 7.4, Papp R3, EpiAirway tissues, DPBS pH 7.4, replicate R3) [×10⁻⁶ cm/s] |
| --- | --- | --- | --- | --- | --- | --- | --- | --- | --- | --- |
| CC(C)NCC(O)COc1ccc(CC(N)=O)cc1 (stereo not drawn) [Atenolol] | 98.5 | – | – | – | – | – | – | – | – | – |
| CN(C)CCOC(c1ccccc1)c1ccccc1 [Diphenhydramine] | 103 | 86.3 | no therapeutic effect | 0.212 ± 0.0222 | 0.188 | 0.218 | – | – | – | – |
| Cn1c(=O)c2c(ncn2C)n(C)c1=O [Caffeine] | 96.9 | – | – | – | – | – | 29.1 | 30.9 | 28.2 | 28.2 |

From patent publication US20220160656A1, “INTRANASALLY ADMINISTERED ANTIHISTAMINES AND USES THEREOF” (DBBH, LLC, priority 2019, published 2022)
